Data as given in patent publication US20130281313A1, “PROGNOSTIC AND/OR PREDICTIVE BIOMARKERS AND BIOLOGICAL APPLICATIONS THEREOF” (INSTITUT GUSTAVE ROUSSY, priority 2010, published 2013).

Columns and labels:
A549 cells [1] = test: Transcriptome studies (mRNA microarrays); format: cell-based, human
Protocol: NSCLC A549 cells were treated with 100 μM CDDP, 75 μM C2-CER or 100 μM CdCl2 for 12 h, or with 50 μM CDDP, C2-CER or CdCl2 for 24 h. Thereafter, cells were collected and lysed for RNA extraction of following established procedures {de La Motte Rouge, 2007}. mRNA expression changes were quantified on G4112A 44 k Whole Human Genome Oligo Microarrays (Agilent Technologies, Santa Clara, USA), as previously reported {Castedo, 2006}. mRNA microarrays underwent standardized post-hybridization processing, image acquisition and analysis (see below) {Castedo, 2006}.
Data from microarray experiments were analyzed with the Rosetta Resolver® System (Rosetta Biosoftware, Seattle, USA). The threshold for statistical significance of probe signals (Intensity) was set at p=10^−5. […] For each mRNA, fold change (FC) was then defined as Intensitysample/Intensitycontrol when Intensitysample>Intensitycontrol, or as—(Intensitycontrol/Intensitysample) when Intensitysample<Intensitycontrol. Ratios were calculated as Intensitysample/Intensitycontrol.

A549 cells [2] = test: Intracellular levels of CDDP in cell lysates; format: cell-based, human; details: 24 h, 25 μM CDDP alone or with PN and/or GSH, normalized to protein content
Protocol: (E,F) Intracellular levels of CDDP (normalized to protein content) in lysates from untransfected A549 cells (D) or A549 cells transfected with a PDXK-targeting siRNA (E), treated for 24 h with 25 μM CDDP alone or in combination with PN and/or GSH. Mean±SEM (n=6). *=p<0.05 (Studen's t test), as compared to untransfected (D) or siUNR transfected (E) cells treated with CDDP only. n.s.=non significant (Student's t test), as compared to cells treated with the same concentration of GSH (D) or to siPDXK-transfected cells treated with CDDP only (E).

[3] = 12 h, 100 μM CDDP, 75 μM C2-CER or 100 μM CdCl2, vs untreated cells
[4] = 24 h, 50 μM CDDP, C2-CER or CdCl2, vs untreated cells

N.N.[Cl][Pt][Cl] [CDDP, cis-diammineplatinum(II) dichloride]
Fold change, ADAR (NM_001111) transcript (A549 cells [1]; [3]): n.s. | Fold change, ALDH7AT (NM_001182) transcript (A549 cells [1]; [3]): n.s. | Fold change, CD151 (NM_004357) transcript (A549 cells [1]; [3]): n.s. | Fold change, CLIC1 (NM_001288) transcript (A549 cells [1]; [3]): n.s. | Fold change, COMMO9 (NM_014186) transcript (A549 cells [1]; [3]): n.s. | Fold change, COX5B (NM_001802) transcript (A549 cells [1]; [3]): n.s. | Fold change, COX7C (NM_001867) transcript (A549 cells [1]; [3]): n.s. | Fold change, DHRSX (NM_145177) transcript (A549 cells [1]; [3]): −1.94 | Fold change, EBP (NM_006579) transcript (A549 cells [1]; [3]): n.s. | Fold change, EEF2 (NM_001901) transcript (A549 cells [1]; [3]): 1.36 | Fold change, FDXK (NM_003681) transcript (A549 cells [1]; [3]): −1.77 | Fold change, FN3KRP (NM_024619) transcript (A549 cells [1]; [3]): 1.33 | Fold change, HDLBP (NM_005336) transcript (A549 cells [1]; [3]): n.s. | Fold change, HGD (NM_000187) transcript (A549 cells [1]; [3]): −1.68 | Fold change, IL6R (NM_000565) transcript (A549 cells [1]; [3]): n.s. | Fold change, KHSRP (NM_003685) transcript (A549 cells [1]; [3]): n.s. | Fold change, LOC389727 (NM_372092) transcript (A549 cells [1]; [3]): n.s. | Fold change, MAT2A (NM_005911) transcript (A549 cells [1]; [3]): −1.97 | Fold change, MOL1 (NM_021960) transcript (A549 cells [1]; [3]): 2.48 | Fold change, MPP6 (NM_016447) transcript (A549 cells [1]; [3]): n.s. | Fold change, OSTCL (NM_145303) transcript (A549 cells [1]; [3]): n.s. | Fold change, P5MC5 (NM_002805) transcript (A549 cells [1]; [3]): n.s. | Fold change, PLK1S1 (NM_018474) transcript (A549 cells [1]; [3]): n.s. | Fold change, PPM1J (NM_005167) transcript (A549 cells [1]; [3]): 1.63 | Fold change, RNF26 (NM_032015) transcript (A549 cells [1]; [3]): n.s. | Fold change, RRAD (NM_004185) transcript (A549 cells [1]; [3]): 6.59 | Fold change, SEMA3G (NM_000379) transcript (A549 cells [1]; [3]): −1.58 | Fold change, SLC22A16AS (NM_007105) transcript (A549 cells [1]; [3]): −1.36 | Fold change, SOCS6 (NM_004232) transcript (A549 cells [1]; [3]): −1.28 | Fold change, TMED1 (NM_006858) transcript (A549 cells [1]; [3]): 1.35 | Fold change, TRIP4 (NM_016213) transcript (A549 cells [1]; [3]): −1.64 | Fold change, UBE2L3 (NM_003347) transcript (A549 cells [1]; [3]): −1.76 | Fold change, UBE21 (NM_014176) transcript (A549 cells [1]; [3]): n.s. | Fold change, W282 (NM_018029) transcript (A549 cells [1]; [3]): n.s. | Fold change, ADAR (NM_001111) transcript (A549 cells [1]; [4]): n.s. | Fold change, ALDH7AT (NM_001182) transcript (A549 cells [1]; [4]): 1.62 | Fold change, CD151 (NM_004357) transcript (A549 cells [1]; [4]): −2.13 | Fold change, CLIC1 (NM_001288) transcript (A549 cells [1]; [4]): n.s. | Fold change, COMMO9 (NM_014186) transcript (A549 cells [1]; [4]): n.s. | Fold change, COX5B (NM_001802) transcript (A549 cells [1]; [4]): n.s. | Fold change, COX7C (NM_001867) transcript (A549 cells [1]; [4]): n.s. | Fold change, DHRSX (NM_145177) transcript (A549 cells [1]; [4]): −5.40 | Fold change, EBP (NM_006579) transcript (A549 cells [1]; [4]): n.s. | Fold change, EEF2 (NM_001901) transcript (A549 cells [1]; [4]): −1.31 | Fold change, FDXK (NM_003681) transcript (A549 cells [1]; [4]): −1.44 | Fold change, FN3KRP (NM_024619) transcript (A549 cells [1]; [4]): 1.25 | Fold change, HDLBP (NM_005336) transcript (A549 cells [1]; [4]): n.s. | Fold change, HGD (NM_000187) transcript (A549 cells [1]; [4]): −1.50 | Fold change, IL6R (NM_000565) transcript (A549 cells [1]; [4]): n.s. | Fold change, KHSRP (NM_003685) transcript (A549 cells [1]; [4]): −2.00 | Fold change, LOC389727 (NM_372092) transcript (A549 cells [1]; [4]): n.s. | Fold change, MAT2A (NM_005911) transcript (A549 cells [1]; [4]): n.s. | Fold change, MOL1 (NM_021960) transcript (A549 cells [1]; [4]): n.s. | Fold change, MPP6 (NM_016447) transcript (A549 cells [1]; [4]): n.s. | Fold change, OSTCL (NM_145303) transcript (A549 cells [1]; [4]): n.s. | Fold change, P5MC5 (NM_002805) transcript (A549 cells [1]; [4]): n.s. | Fold change, PLK1S1 (NM_018474) transcript (A549 cells [1]; [4]): n.s. | Fold change, PPM1J (NM_005167) transcript (A549 cells [1]; [4]): n.s. | Fold change, RNF26 (NM_032015) transcript (A549 cells [1]; [4]): n.s. | Fold change, RRAD (NM_004185) transcript (A549 cells [1]; [4]): 3.75 | Fold change, SEMA3G (NM_000379) transcript (A549 cells [1]; [4]): n.s. | Fold change, SLC22A16AS (NM_007105) transcript (A549 cells [1]; [4]): −1.34 | Fold change, SOCS6 (NM_004232) transcript (A549 cells [1]; [4]): n.s. | Fold change, TMED1 (NM_006858) transcript (A549 cells [1]; [4]): n.s. | Fold change, TRIP4 (NM_016213) transcript (A549 cells [1]; [4]): n.s. | Fold change, UBE2L3 (NM_003347) transcript (A549 cells [1]; [4]): n.s. | Fold change, UBE21 (NM_014176) transcript (A549 cells [1]; [4]): n.s. | Fold change, W282 (NM_018029) transcript (A549 cells [1]; [4]): 1.30

Cc1ncc(CO)c(CO)c1O [PN, pyridoxine]
intracellular accumulation of CDDP (A549 cells [2]): significantly augmented by PN in a PDXK-dependent fashion
